These are literature values, as cited in article PMC5007443, “TNIK inhibition abrogates colorectal cancer stemness” (Nature Communications, 2016).

In one data set the test system is Wnt signal. Also noted: method as in PMID 23232060. The conditions noted are these: read-out: IC50, Wnt signal-inhibitory effects; cited from earlier work.
The subject of a further data set is TNIK. Also noted: method as in PMID 23232060. The conditions noted are these: read-out: IC50, enzyme activity of TNIK; cited from earlier work.
In the next data set the test system is lung cancer cells. More on the design: method as in PMID 25337707. The conditions noted are these: cited from earlier work.

The term IC50 denotes the point on the concentration scale where inhibition reaches its midpoint. With `COc1ccc(C#N)cc1-c1ccnc(Nc2ccc(N3CCOCC3)c(OC)c2)c1` [Compound 9, 4-methoxy-3-(2-(3-methoxy-4-morpholinophenylamino)pyridin-4-yl)benzonitrile], the IC50 in the data set on Wnt signal was over 2000 nM; in the data set with TNIK, 8 nM.
For `Cc1ccc(C(=O)Nc2sc(Nc3ccccc3)nc2C(N)=O)cc1` [NCB-0005], in the data set on lung cancer cells, the “EMT of lung cancer cells induced by TGF-β1” value was “inhibit”.
